# In patent publication US20090042993A1, “IDENTIFICATION OF NOVEL POST-TRANSLATIONAL PROTEIN MODIFICATIONS” (priority 2007, published 2009):
# System: BACE1
# Experiment: BACE1 steady-state levels by Western blot in stably transfected CHO cells
# Format: cell-based, human
# Description: Chinese Hamster Ovary (CHO) cells were grown in DMEM (Gibco BRL—Invitrogen, Carlsbad, Calif.) supplemented with 10% fetal bovine serum (FBS) and penicillin/streptomycin (Mediatech, Inc., Herndon, Va.) as described before (Puglielli et al., 2001, Nat. Cell Biol. 3: 905-912; Puglielli et al., 2003, J. Biol. Chem. 278: 19777-19783; Costantini et al., 2005, Biochem. J. 391: 59-67; Costantini et al., 2006, EMBO J. 25: 1997-2006). Cells were maintained in a humidified atmosphere with 5% CO2. For ceramide treatment, C6-ceramide (also simply called ceramide herein) was administered at the final concentration of 10 μM; treatment was started when cells were ˜30% confluent and carried out for 4 days, unless specified otherwise. Treatment with proteasome inhibitors MG-132 (5 μM) and lactacystin (10 μM) was done for 10 hours, as described earlier (Qing et al., 2004, FASEB J. 18: 1571-1573).
# Cell lysates were prepared in GTIP buffer (100 mM Tris-pH 7.6, 20 mM EDTA, 1.5 M NaCl) with 1% Triton X-100 (Roche, Basel, Switzerland), 0.25% NP40 (Roche), and a protease inhibitor cocktail (Roche) as described before (Puglielli et al., 2003, J. Biol. Chem. 278: 19777-19783; Costantini et al., 2005, Biochem. J. 391: 59-67). Briefly, cell monolayers were washed twice in PBS, scraped, transferred into eppendorf tubes, and centrifuged at 8,000 rpm for 5 min in a table-top centrifuge. Cell pellets were then lysed in ice for 30 min with the buffer indicated above, and centrifuged again at 14,000 rpm prior to the recollection of the protein extracts. Proteins were quantitated with the BCA Protein Assay (Pierce, Rockford, Ill.) following the manufacturer's instructions.
# For the immunoprecipitation of BACE1, cell lysates were pre-cleared with BioMag Protein A (Polysciences, Inc., Warrington, Pa.); beads were used at the concentration of 15 μl of the slurry per sample and separated with a magnetic holder. BACE1 was then immunoprecipitated with anti-BACE1 antibodies overnight and recovered with BioMag Protein A as above. The immunoprecipitate-bead complexes were washed 3 times in PBS and boiled for 10 min in SDS sample buffer (Invitrogen) with β-mercaptoethanol. Beads were then separated and the samples were analyzed by reducing SDS-PAGE.
# Western blotting was performed on 10% Bis-Tris, 4-12% Bis-Tris, or 7% Tris-Acetate SDS-PAGE systems (NuPAGE; Invitrogen) as described (Puglielli et al., 2001, Nat. Cell Biol. 3: 905-912; Puglielli et al., 2003, J. Biol. Chem. 278: 19777-19783; Costantini et al., 2005, Biochem. J. 391: 59-67; Costantini et al., 2006, EMBO J. 25: 1997-2006). The following antibodies were used: anti-BACE1 N-terminal (monoclonal antibody; R&D Systems, Minneapolis, Minn.); anti-BACE1 C-terminal (polyclonal antibody; Abcam, Cambridge, Mass.); anti-pro-BACE1 (polyclonal; Abcam); anti-acetylated lysine (monoclonal; Abcam); anti-calreticulin (ER marker, polyclonal; Abcam); anti-58 K Golgi/formiminotransferase cyclodeaminase (Golgi marker, polyclonal; Abcam); anti-syntaxin (Golgi marker, monoclonal; Abcam); anti-EEA1 (endosomes, monoclonal; BD Transduction Laboratories, Lexington, Ky.); anti-actin (polyclonal; Cell Signaling, Danvers, Mass.). Secondary antibodies (Amersham) were used at a 1:6000 dilution. Binding was detected by chemiluminescence (LumiGLO kit; KPL, Gaithersburg, Md.). Only a representative blot of at least three different experiments is shown throughout the paper.
# FIG. 1 illustrates how BACE1 is transiently acetylated in the lumen of the ER. For this experiment, CHO cells expressing human BACE1 were treated with C6-ceramide (also simply called ceramide herein) for different periods of time. BACE1 was then immunoprecipitated and analyzed by Western blotting. FIG. 1(A): CHO cells stably expressing BACE1 were treated with ceramide for the indicated time. BACE1 was immunoprecipitated from total cell lysates, separated on a 7% Tris-Acetate NuPAGE system, and then analyzed by Western blot using either anti-BACE1 or anti-acetylated lysine antibodies. […]
structure (smiles),measurement,setting,value
"CCCCCCCCCCCCC/C=C/[C@@H](O)[C@H](CO)NC(=O)CCCCC [ceramide, C6-ceramide]",steady-state levels of immature and mature BACE1,"CHO cells expressing human BACE1, ceramide 10 μM, apparent plateau at day 4",progressive increase in the steady-state levels
same,steady-state levels of BACE1Ala,CHO cells stably expressing BACE1Ala grown with ceramide,not affected
